Test results as given in ChEMBL document CHEMBL5143665, “Discovery and preclinical evaluations of WX-0593, a novel ALK inhibitor targeting crizotinib-resistant mutations” (Bioorg Med Chem Lett, 2022).
pIC50: −log10 of the molar value.

Key:
Experiment in all cases: cells
KARPAS-299 = details: Homo sapiens
Description: Antiproliferative activity against human KARPAS-299 cells harbouring wild type ALK assessed as reduction in cell viability by Celltitre-Glo luminescent assay

BaF3 [1] = details: Mus musculus
Description: Antiproliferative activity against mouse BaF3 cells harbouring ALK wild type assessed as reduction in cell viability by Celltitre-Glo luminescent assay

BaF3 [2] = details: Mus musculus; remark: listed apart in the source
Description: Antiproliferative activity against mouse BaF3 cells harbouring ALK L1196M mutant assessed as reduction in cell viability by Celltitre-Glo luminescent assay

BaF3 [3] = details: Mus musculus; remark: listed apart in the source
Description: Antiproliferative activity against mouse BaF3 cells harbouring ALK C1156Y mutant assessed as reduction in cell viability by Celltitre-Glo luminescent assay

SMILES	pIC50 (KARPAS-299)	pIC50 (BaF3 [1])	pIC50 (BaF3 [2])	pIC50 (BaF3 [3])
COc1cc(C2CCC3(CC2)CCN(C)CC3)ccc1Nc1ncc(Cl)c(Nc2ccccc2P(C)(C)=O)n1	7.44	7.96	7.57	7.52
COc1cc(N2CCC3(CCNC3)CC2)ccc1Nc1ncc(Cl)c(Nc2ccccc2P(C)(C)=O)n1	7.11			
COc1cc(N2CCC3(CCN(C)CC3)CC2)c(F)cc1Nc1ncc(Cl)c(Nc2ccccc2P(C)(C)=O)n1	7.82			
